Measured values taken from US12612379B2, “Inhibitors of APOL1 and methods of using same” (Vertex Pharmaceuticals Incorporated, priority 2021, dated 2026).

Molecular target: T1, APOL1 (tet-inducible transgenic APOL1 T-REx-HEK293 cell lines) (Homo sapiens, UniProt O14791)
T1 sequence (O14791 1-398 S342G/I384M): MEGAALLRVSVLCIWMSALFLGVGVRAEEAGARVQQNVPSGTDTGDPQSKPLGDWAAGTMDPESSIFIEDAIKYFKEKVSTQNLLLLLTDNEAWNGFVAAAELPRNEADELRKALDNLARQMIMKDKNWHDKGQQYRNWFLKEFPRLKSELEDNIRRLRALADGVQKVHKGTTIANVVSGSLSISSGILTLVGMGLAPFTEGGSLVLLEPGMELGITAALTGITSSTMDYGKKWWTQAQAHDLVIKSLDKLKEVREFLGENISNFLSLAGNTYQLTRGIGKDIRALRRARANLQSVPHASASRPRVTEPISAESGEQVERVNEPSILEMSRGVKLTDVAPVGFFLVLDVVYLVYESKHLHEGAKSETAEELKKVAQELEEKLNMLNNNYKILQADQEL
Assay: MultiTox-Fluor Multiplex Cytotoxicity Assay for APOL1 inhibitor properties
Type: cell-based
Details: APOL1 induced with 50 ng/mL tet, 24 hours with compound, ratio of dead to live cells, top concentration 10 μM; APOL1 variant (G0/G1/G2) not stated; read-out: IP50 (nM) (i.e., IC50 for cell proliferation)
Protocol: The MultiTox-Fluor Multiplex Cytotoxicity Assay is a single-reagent-addition, homogeneous, fluorescence assay that measures the number of live and dead cells simultaneously in culture wells. The assay measures cell viability and cytotoxicity by detecting two distinct protease activities. The live-cell protease activity is restricted to intact viable cells and is measured using a fluorogenic, cell-permeant peptide glycyl-phenylalanylamino fluorocoumarin (GF-AFC) substrate. The substrate enters intact cells, where it is cleaved to generate a fluorescent signal proportional to the number of living cells. […] A second, cell-impermeant, fluorogenic peptide substrate (bis-AAF-R110 Substrate) is used to measure dead-cell protease that has been released from cells that have lost membrane integrity. A ratio of dead to live cells is used to normalize data.
Briefly, the tet-inducible transgenic APOL1 T-REx-HEK293 cell lines were incubated with 50 ng/mL tet to induce APOL1 in the presence of 3-(2-(4-fluorophenyl)-1H-indol-3-yl)-N-((3S,4R)-4-hydroxy-2-oxopyrrolidin-3-yl)propenamide at 10.03, 3.24, 1.13, 0.356, 0.129, 0.042, 0.129, 0.0045, 0.0015, 0.0005 μM in duplicate for 24 hours in a humidified 37° C. incubator. The MultiTox reagent was added to each well and placed back in the incubator for an additional 30 minutes. The plate was read on the EnVision plate reader. A ratio of dead to live cells was used to normalize, and data was imported, analyzed, and fit using Genedata Screener (Basel, Switzerland) software. Data was normalized using percent of control, no tet (100% viability), and 50 ng/mL tet treated (0% viability), and fit using Smart Fit. The reagents, methods, and complete protocol for the MultiTox assay are described below.
Human embryonic kidney (HEK293) cell lines containing a tet-inducible expression system (T-REx™; Invitrogen, Carlsbad, CA) and Adeno-associated virus site 1 pAAVS1-Puro-APOL1 G0 or pAAVS1-Puro-APOL1 G1 or pAAVS1-Puro-APOL1 G2 Clones G0 DC2.13, G1 DC3.25, and G2 DC4.44 were grown in a T-225 flask at ˜90% confluency in cell growth media (DMEM, 10% Tet-free FBS, 2 mM L-glutamine, 100 Units/mL penicillin-streptomycin, 5 μg/mL blasticidin S HCl, 1 μg/mL puromycin dihydrochloride). Cells were washed with DPBS and then trypsinized to dissociate from the flask. Media was used to quench the trypsin, cells were then pelleted at 200 g and resuspended in fresh cell assay media (DMEM, 2% Tet-free FBS, 2 mM L-glutamine, 100 Units/mL penicillin-streptomycin). Cells were counted and diluted to 1.17×10^6 cells/mL. 20 μL of cells (23,400/well) were dispensed in every well of a 384-well Poly-D-Lysine coated plate using the Multidrop dispenser. The plates were then incubated at room temperature for one hour.
Tetracycline is needed to induce APOL1 expression. 1 mg/mL tet stock in water was diluted to 250 ng/mL (5×) in cell assay media. 60 μL of cell assay media (no tet control) was dispensed in columns 1 and 24, and 60 μL of 5×tet in 384-PP-round bottom plate was dispensed in columns 2 to 23 with the Multidrop dispenser.
Assay ready plates from the Global Compound Archive were ordered using template 384_APOL1Cell_DR10n2_50 uM_v3. Compounds were dispensed at 200 nL in DMSO. The final top concentration was 10 μM with a 10 point 3-fold dilution in duplicate in the MultiTox assay.
20 μL was transferred from the 5×tet plate to the ARP and mixed, then 5 μL of 5×tet and the compounds were transferred to the cell plate and mixed using the Bravo. The cell plate was placed in the humidified 37° C. 5% CO2 incubator for 24 hours.
The MultiTox-Fluor Multiplex Cytotoxicity Assay was performed in accordance with the manufacturer's protocol. After cells were incubated with tet and compound for 24 hours, 25 μL of 1×MultiTox reagent was added to each well using the Multidrop dispenser; the plates were placed on a plate shaker (600 rpm) for 2 minutes, then centrifuged briefly and placed back in the 37° C. incubator for 30 minutes. […]

SMILES	IC50 [nM]
COc1cc([C@]2(O)C[C@H](C)N(C)[C@H](c3cn(C)nn3)C2)ccc1C(F)(F)F [Compound 42]	50 to 500
C[C@H]1C[C@@](O)(c2ccc(C(F)(F)C(F)(F)F)cc2)C[C@@H](c2cn(C)nn2)N1 [Compound 47]	≤ 50
C[C@H]1C[C@@](O)(c2ccc(Cl)c(C(F)(F)F)c2)C[C@@H](c2cn(C)nn2)N1 [Compound 33]	≤ 50
C[C@H]1C[C@@](O)(c2ccc(Br)cc2)C[C@@H](c2cn(C)nn2)N1 [Compound 27]	≤ 50
C[C@H]1C[C@@](O)(c2ccc3c(c2)nnn3C)C[C@@H](c2cn(C)nn2)N1 [Compound 55]	≥ 500
C[C@H]1C[C@@](O)(c2ccc(C(F)(F)F)c(F)c2)C[C@@H](c2cn(C)nn2)N1 [Compound 25]	≤ 50
C[C@H]1C[C@@](O)(c2ccc(C(F)(F)F)cc2)C[C@@H](c2cn(C)nn2)N1 [Compound 16]	≤ 50
C[C@H]1C[C@@](O)(c2ccc(C(F)(F)F)c(Cl)c2)C[C@@H](c2cn(C)nn2)N1 [Compound 36]	≤ 50
C[C@H]1C[C@@](O)(c2ccccc2)C[C@@H](c2cn(C)nn2)N1 [Compound 7]	≥ 500
Cc1ccc([C@@]2(O)C[C@@H](c3cn(C)nn3)N[C@@H](C)C2)cc1F [Compound 11]	50 to 500
C[C@H]1C[C@@](O)(c2ccc(C3CC3)cc2)C[C@@H](c2cn(C)nn2)N1 [Compound 29]	≤ 50
C[C@H]1C[C@@H](c2ccc(C(F)(F)F)cc2)C[C@@H](c2cn(C)nn2)N1 [Compound 66, (2S,4R,6S)-2-methyl-6-(1-methyltriazol-4-yl)-4-[4-(trifluoromethyl)phenyl]piperidine]	50 to 500
COc1cc([C@@]2(O)C[C@@H](c3cn(C)nn3)N[C@@H](C)C2)ccc1Cl [Compound 19]	≤ 50
C[C@H]1C[C@@](O)(CS(=O)(=O)c2ccc(Br)cc2)C[C@@H](c2cn(C)nn2)N1 [Compound 45]	≥ 500
C[C@H]1C[C@@](O)(c2cccc(Cl)c2)C[C@@H](c2cn(C)nn2)N1 [Compound 3]	50 to 500
C[C@H]1C[C@@](C(N)=O)(c2ccc(C(F)(F)F)cc2)C[C@@H](c2cn(C)nn2)N1 [Compound 67, (2S,4S,6S)-2-methyl-6-(1-methyl-1H-1,2,3-triazol-4-yl)-4-(4-(trifluoromethyl)phenyl)piperidine-4-carboxamide]	50 to 500
C[C@H]1C[C@@](O)(Cc2cccc(C(F)(F)F)c2)C[C@@H](c2cn(C)nn2)N1 [Compound 61, (2S,4S,6S)-2-methyl-6-(1-methyltriazol-4-yl)-4-[[3-(trifluoromethyl)phenyl]methyl]piperidin-4-ol]	≥ 500
C[C@H]1C[C@@](O)(c2ccc(C(F)(F)F)cc2O)C[C@@H](c2cn(C)nn2)N1 [Compound 44]	50 to 500
C[C@H]1C[C@@](O)(c2ccc(Cl)cn2)C[C@@H](c2cn(C)nn2)N1 [Compound 18]	50 to 500
C[C@H]1C[C@@](CO)(c2ccc(C(F)(F)F)cc2)C[C@@H](c2cn(C)nn2)N1 [Compound 65, ((2S,4S,6S)-2-methyl-6-(1-methyl-1H-1,2,3-triazol-4-yl)-4-(4-(trifluoromethyl)phenyl)piperidin-4-yl)methanol]	50 to 500
C[C@H]1C[C@@](O)(c2ccc(C(F)(F)F)c(OC(F)(F)F)c2)C[C@@H](c2cn(C)nn2)N1 [Compound 50]	≤ 50
C[C@H]1C[C@@](O)(c2ccc3c(c2)C2(CCO3)CC2)C[C@@H](c2cn(C)nn2)N1 [Compound 32]	50 to 500
Cc1nn(C)c2ccc([C@@]3(O)C[C@@H](c4cn(C)nn4)N[C@@H](C)C3)cc12 [Compound 59]	50 to 500

SMILES	IC50 [nM]
C[C@H]1C[C@@](O)(c2ccc3c(c2)OC(F)(F)C3(F)F)C[C@@H](c2cn(C)nn2)N1 [Compound 40]	≤ 50
C[C@H]1C[C@@](C#N)(c2ccc(Cl)cn2)C[C@@H](c2cn(C)nn2)N1 [Compound 63, (2S,4S,6S)-4-(5-chloropyridin-2-yl)-2-methyl-6-(1-methyl-1H-1,2,3-triazol-4-yl)piperidine-4-carbonitrile]	≥ 500
C[C@H]1C[C@@](O)(c2ccc(C(F)F)cc2)C[C@@H](c2cn(C)nn2)N1 [Compound 38]	≤ 50
C[C@H]1C[C@@](O)(c2ccc3c(cnn3C)c2)C[C@@H](c2cn(C)nn2)N1 [Compound 56]	≥ 500
CC(C)c1ccc([C@@]2(O)C[C@@H](c3cn(C)nn3)N[C@@H](C)C2)cc1 [Compound 8]	≤ 50
COc1cc(Cl)ccc1[C@@]1(O)C[C@@H](c2cn(C)nn2)N[C@@H](C)C1 [Compound 20]	≥ 500
C[C@H]1C[C@@](O)(c2ccc3cn(C)nc3c2)C[C@@H](c2cn(C)nn2)N1 [Compound 54]	≥ 500
C[C@H]1C[C@@](O)(c2ccc(Cl)cc2F)C[C@@H](c2cn(C)nn2)N1 [Compound 22]	≤ 50
C[C@H]1C[C@@](O)(c2ccc3c(c2)CC(C)(C)O3)C[C@@H](c2cn(C)nn2)N1 [Compound 31]	≥ 500
C[C@H]1C[C@@](O)(c2csc(C(F)(F)F)c2)C[C@@H](c2cn(C)nn2)N1 [Compound 14]	50 to 500
CC1CC(O)(c2cccc(Cl)c2)CC(c2cnn(CCS(C)(=O)=O)c2)N1 (stereo not drawn) [Compound 2]	50 to 500
C[C@H]1C[C@@](O)(c2ccc3cn[nH]c3c2)C[C@@H](c2cn(C)nn2)N1 [Compound 52]	≤ 50
C[C@H]1C[C@@](O)(c2ccc(C(F)(F)F)c(O)c2)C[C@@H](c2cn(C)nn2)N1 [Compound 43]	≤ 50
C[C@H]1C[C@@](O)(c2ccc(Cl)c(F)c2)C[C@@H](c2cn(C)nn2)N1 [Compound 13]	≤ 50
C[C@H]1C[C@@](O)(c2ccc(Cl)nc2)C[C@@H](c2cn(C)nn2)N1 [Compound 17]	50 to 500
C[C@H]1C[C@@](O)(c2ccc(Cl)cc2)C[C@@H](c2cn(C)nn2)N1 [Compound 4]	≤ 50
C[C@H]1C[C@@](O)(c2ccc(C#N)cc2)C[C@@H](c2cn(C)nn2)N1 [Compound 30]	50 to 500
C[C@H]1C[C@@](C#N)(c2ccc(C(F)(F)F)cc2)C[C@@H](c2cn(C)nn2)N1 [Compound 46, (2S,4S,6S)-2-methyl-6-(1-methyltriazol-4-yl)-4-[4-(trifluoromethyl)phenyl]piperidine-4-carbonitrile]	50 to 500
C[C@H]1C[C@@](O)(c2ccnc(C(F)(F)F)c2)C[C@@H](c2cn(C)nn2)N1 [Compound 35]	≥ 500
COc1cc([C@@]2(O)C[C@@H](c3cn(C)nn3)N[C@@H](C)C2)ccc1C(F)(F)F [Compound 28]	≤ 50
C[C@H]1C[C@@](O)(c2ccc3c(c2)CCC3(F)F)C[C@@H](c2cn(C)nn2)N1 [Compound 41]	< 10000
C[C@H]1C[C@@](O)(c2ccc3cnn(C)c3c2)C[C@@H](c2cn(C)nn2)N1 [Compound 58]	≤ 50
